target: T1, Recombinant purified human CDK7 (Homo sapiens, UniProt P50613); test: CDK7 activity inhibition, ADP-Glo kinase assay; type: biochemical; settings: ATP 90 μM, MBP substrate, 2 hours 30° C.
T1 construct: purchased ThermoFisher PV3868
Procedure: Recombinant purified human CDK7 (ThermoFisher, PV3868) and ADP Glo Kinase Assay Kit (Promega, V9102) were used. CDK7 was diluted with 1× kinase reaction buffer (40 mM Tris-Cl, pH 7.5, 20 mM MgCl2, 0.1 mg/ml BSA and 50 μM DTT) and added to a 96 well plate (CDK7 final concentration per reaction: 50 ng). It was finally treated with the compound of the present invention to a 1% DMSO aqueous solution, and a substrate cocktail containing ATP (final concentration of 90 μM) and 0.2 μg/μl MBP (myelin basic protein) in a total of 25 μl reaction mass was added to a 96 well plate, thereby initiating the enzymatic reaction. After 2 hours of incubation (30° C.), an equal volume (25 μl per reaction) of ADP Glo was added and incubated at room temperature for 60 minutes (30° C.). Thereafter, kinase detection reagent (50 μl per reaction) was added and incubated at room temperature for 30 minutes (30° C.). The kinase activity was measured by the chemiluminescence method according to the ADP Glo Kinase Assay Kit instruction manual, and the CDK7 inhibitory activity of the compounds of the present invention was calculated.

T1 sequence (P50613 whole entry): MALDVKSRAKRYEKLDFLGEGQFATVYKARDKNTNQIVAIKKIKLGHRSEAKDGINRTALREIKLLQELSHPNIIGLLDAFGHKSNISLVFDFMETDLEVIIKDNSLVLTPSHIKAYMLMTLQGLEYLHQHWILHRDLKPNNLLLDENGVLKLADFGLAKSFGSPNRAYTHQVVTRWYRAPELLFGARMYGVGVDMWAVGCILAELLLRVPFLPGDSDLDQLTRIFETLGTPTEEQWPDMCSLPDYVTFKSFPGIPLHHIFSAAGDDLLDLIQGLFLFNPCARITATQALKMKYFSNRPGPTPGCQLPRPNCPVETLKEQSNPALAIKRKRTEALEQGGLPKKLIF
T1 sequence (P51946 whole entry partner): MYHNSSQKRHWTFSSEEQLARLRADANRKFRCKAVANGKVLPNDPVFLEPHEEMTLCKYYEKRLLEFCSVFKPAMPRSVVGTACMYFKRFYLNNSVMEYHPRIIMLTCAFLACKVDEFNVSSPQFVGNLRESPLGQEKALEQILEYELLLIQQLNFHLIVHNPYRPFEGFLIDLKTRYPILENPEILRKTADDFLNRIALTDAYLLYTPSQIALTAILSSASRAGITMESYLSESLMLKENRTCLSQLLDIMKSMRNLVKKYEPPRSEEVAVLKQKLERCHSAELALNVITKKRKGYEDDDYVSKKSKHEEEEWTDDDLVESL
T1 sequence (P51948 whole entry partner): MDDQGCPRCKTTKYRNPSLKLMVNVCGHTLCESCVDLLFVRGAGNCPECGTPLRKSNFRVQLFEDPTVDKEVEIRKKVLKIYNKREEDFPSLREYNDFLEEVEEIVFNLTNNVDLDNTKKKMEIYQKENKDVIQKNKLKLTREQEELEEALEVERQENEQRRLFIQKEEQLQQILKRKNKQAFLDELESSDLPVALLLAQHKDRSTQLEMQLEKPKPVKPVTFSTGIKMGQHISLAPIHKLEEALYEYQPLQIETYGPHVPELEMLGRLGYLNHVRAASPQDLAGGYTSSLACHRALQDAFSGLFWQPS

`C[C@H](C(=O)Nc1ncc(C(F)(F)F)s1)c1cccc(-c2cnc(NC(=O)/C=C/CN(C)C)c(C(F)(F)F)c2)c1` [Compound 111, (S,E)-4-(dimethylamino)-N-(5-(3-(1-oxo-1-((5-(trifluoromethyl)thiazol-2-yl)amino)propan-2-yl)phenyl)-3-(trifluoromethyl)pyridin-2-yl)but-2-enamide] and `C[C@H](C(=O)Nc1ncc(C(F)(F)F)s1)c1cccc(-c2cnc(NC(=O)/C=C/CN(C)C)c(Cl)c2)c1` [Compound 113, (S,E)-N-(3-chloro-5-(3-(1-oxo-1-((5-(trifluoromethyl)thiazol-2-yl)amino)propan-2-yl)phenyl)pyridin-2-yl)-4-(dimethylamino)but-2-enamide] are within 1.5-fold of each other in IC50: 9.5 nM for the first, 8.5 nM for the second.

Compared with `C[C@H](C(=O)Nc1ncc(C(F)(F)F)s1)c1cccc(-c2cnc(NC(=O)/C=C/CN3CCCCC3)cn2)c1` [Compound 120, (S,E)-N-(5-(3-(1-oxo-1-((5-(trifluoromethyl)thiazol-2-yl)amino)propan-2-yl)phenyl)pyrazin-2-yl)-4-(piperidin-1-yl)but-2-enamide], `C[C@H](C(=O)Nc1ncc(C(F)(F)F)s1)c1cccc(-c2cnc(NC(=O)/C=C/CN3CCN(C)CC3)cn2)c1` [Compound 95, (S,E)-4-(4-methylpiperazin-1-yl)-N-(5-(3-(1-oxo-1-((5-(trifluoromethyl)thiazol-2-yl)amino)propan-2-yl)phenyl)pyrazin-2-yl)but-2-enamide] is 5-fold higher in IC50: 16 nM for the first, 80.4 nM for the second. The first is the more potent here.

First: C=CC(=O)Nc1ccc(-c2csc(C(C)C(=O)Nc3ncc(Cl)s3)c2)cn1 (stereo not drawn) [Compound 76, N-(5-(5-(1-((5-chlorothiazol-2-yl)amino)-1-oxopropan-2-yl)thiophen-3-yl)pyridin-2-yl)acrylamide]
Second: C=CC(=O)Nc1ccc(-c2cccc(C(C)C(=O)Nc3ncc(C4CC4)s3)c2)cn1 (stereo not drawn) [Compound 2, N-(5-(3-(1-((5-cyclopropylthiazol-2-yl)amino)-1-oxopropan-2-yl)phenyl)pyridin-2-yl)acrylamide]
The IC50 of the first is 2.3-fold higher: 92 nM for the first, 40 nM for the second.

First: CCc1cnc(NC(=O)[C@@H](C)c2cccc(-c3cnc(NC(=O)/C=C/CN4CCN(C)CC4)c(C#N)c3)c2)s1 [Compound 136, (S,E)-N-(3-cyano-5-(3-(1-((5-ethylthiazol-2-yl)amino)-1-oxopropan-2-yl)phenyl)pyridin-2-yl)-4-(4-methylpiperazin-1-yl)but-2-enamide]
Second: CCc1cnc(NC(=O)[C@@H](C)c2cccc(-c3cnc(NC(=O)/C=C/CN4CCOCC4)c(C#N)c3)c2)s1 [Compound 135, (S,E)-N-(3-cyano-5-(3-(1-((5-ethylthiazol-2-yl)amino)-1-oxopropan-2-yl)phenyl)pyridin-2-yl)-4-morpholinobut-2-enamide]
The IC50 of the first is 2.5-fold higher: 33 nM for the first, 13 nM for the second. The second is the more potent here.

First: C=CC(=O)Nc1ncc(-c2cncc(C(C)C(=O)Nc3ncc(C(F)(F)F)s3)c2)cc1C#N (stereo not drawn) [Compound 88, N-(5-cyano-5′-(1-oxo-1-((5-(trifluoromethyl)thiazol-2-yl)amino)propan-2-yl)-[3,3′-bipyridin]-6-yl)acrylamide]
Second: C=CC(=O)Nc1ncc(-c2cccc([C@H](C)C(=O)Nc3ncc(C(F)(F)F)s3)c2)cc1C#N [Compound 124, (S)-N-(3-cyano-5-(3-(1-oxo-1-((5-(trifluoromethyl)thiazol-2-yl)amino)propan-2-yl)phenyl)pyridin-2-yl)acrylamide]
The IC50 of the first is 3.6-fold higher: 16 nM for the first, 4.5 nM for the second. The second is the more potent here.

`C[C@H](C(=O)Nc1ncc(N(C)C)s1)c1cccc(-c2cnc(NC(=O)/C=C/CN(C)C)cn2)c1` [Compound 106, (S,E)-4-(dimethylamino)-N-(5-(3-(1-((5-(dimethylamino)thiazol-2-yl)amino)oxopropan-2-yl)phenyl)pyrazin-2-yl)but-2-enamide] and `C[C@H](C(=O)Nc1ncc(Cl)s1)c1cccc(-c2cnc(NC(=O)/C=C/CN(C)C)cn2)c1` [Compound 93, (S,E)-N-(5-(3-(1-((5-chlorothiazol-2-yl)amino)-1-oxopropan-2-yl)phenyl)pyrazin-2-yl)-4-(dimethylamino)but-2-enamide] are within 1.5-fold of each other in IC50: 71 nM for the first, 93 nM for the second.

First: CCc1cnc(NC(=O)[C@@H](C)c2cccc(-c3cnc4c(c3)CCN4C(=O)/C=C/CN(C)C)c2)s1 [Compound 122, (S,E)-2-(3-(1-(4-(dimethylamino)but-2-enoyl)-2,3-dihydro-1H-pyrrolo[2,3-b]pyridin-5-yl)phenyl)-N-(5-ethylthiazol-2-yl)propanamide]
Second: CCc1cnc(NC(=O)[C@@H](C)c2cccc(-c3cnc(NC(=O)/C=C/CN(C)C)c(C)c3)c2)s1 [Compound 125, (S,E)-4-(dimethylamino)-N-(5-(3-(1-((5-ethylthiazol-2-yl)amino)-1-oxopropan-2-yl)phenyl)-3-methylpyridin-2-yl)but-2-enamide]
The IC50 of the first is 2.2-fold lower: 6 nM for the first, 13.2 nM for the second. The first is the more potent here.

First: CCc1cnc(NC(=O)C(CC)c2cccc(-c3ccc(NC(=O)/C=C/CN(C)C)cn3)c2)s1 (stereo not drawn) [Compound 131, (E)-4-(dimethylamino)-N-(6-(3-(1-((5-ethylthiazol-2-yl)amino)-1-oxobutan-2-yl)phenyl)pyridin-3-yl)but-2-enamide]
Second: CCc1cnc(NC(=O)C(CC)c2cccc(-c3cnc(NC(=O)/C=C/CN(C)C)c(C#N)c3)c2)s1 (stereo not drawn) [Compound 138, (E)-N-(3-cyano-5-(3-(1-((5-ethylthiazol-2-yl)amino)-1-oxobutan-2-yl)phenyl)pyridin-2-yl)-4-(dimethylamino)but-2-enamide]
The IC50 of the first is 7.4-fold higher: 59 nM for the first, 8 nM for the second. The second is the more potent here.

`C[C@H](C(=O)Nc1ncc(C(F)(F)F)s1)c1cccc(-c2ccc(NC(=O)/C=C/CN(C)C)nc2)c1` [Compound 116, (S,E)-4-(dimethylamino)-N-(5-(3-(1-oxo-1-((5-(trifluoromethyl)thiazol-2-yl)amino)propan-2-yl)phenyl)pyridin-2-yl)but-2-enamide] and `Cc1cc(-c2cccc([C@H](C)C(=O)Nc3ncc(C(F)(F)F)s3)c2)cnc1NC(=O)/C=C/CN(C)C` [Compound 112, (S,E)-4-(dimethylamino)-N-(3-methyl-5-(3-(1-oxo-1-((5-(trifluoromethyl)thiazol-2-yl)amino)propan-2-yl)phenyl)pyridin-2-yl)but-2-enamide] are within 1.5-fold of each other in IC50: 13.5 nM for the first, 17 nM for the second.

Going from `COC[C@@H]1CCCN1C/C=C/C(=O)Nc1cnc(-c2cccc([C@H](C)C(=O)Nc3ncc(C(F)(F)F)s3)c2)cn1` [Compound 118, (E)-4-((S)-2-(methoxymethyl)pyrrolidin-1-yl)-N-(5-(3-((S)-1-oxo-1-((5-(trifluoromethyl)thiazol-2-yl)amino)propan-2-yl)phenyl)pyrazin-2-yl)but-2-enamide] to `C[C@H](C(=O)Nc1ncc(Cl)s1)c1cccc(-c2cnc(NC(=O)/C=C/CN3CCOCC3)cn2)c1` [Compound 98, (S,E)-N-(5-(3-(1-((5-chlorothiazol-2-yl)amino)-1-oxopropan-2-yl)phenyl)pyrazin-2-yl)-4-morpholinobut-2-enamide], the IC50 rises from 20 nM to 87 nM (4.3-fold).

First: CCc1cnc(NC(=O)[C@@H](C)c2cccc(-c3cnc(N(C)C(=O)/C=C/CN(C)C)c(C#N)c3)c2)s1 [Compound 132, (S,E)-N-(3-cyano-5-(3-(1-((5-ethylthiazol-2-yl)amino)-1-oxopropan-2-yl)phenyl)pyridin-2-yl)-4-(dimethylamino)-N-methylbut-2-enamide]
Second: CCc1cnc(NC(=O)C(C)c2cncc(-c3cnc(NC(=O)/C=C/CN(C)C)c(C#N)c3)c2)s1 (stereo not drawn) [Compound 137, (E)-N-(5-cyano-5′-(1-((5-ethylthiazol-2-yl)amino)-1-oxopropan-2-yl)-[3,3′-bipyridin]-6-yl)-4-(dimethylamino)but-2-enamide]
The IC50 of the first is 2-fold lower: 6.6 nM for the first, 13 nM for the second. The first is the more potent here.

First: CC(C(=O)Nc1ncc(C2CC2)s1)c1cccc(-c2ccc(NC(=O)/C=C/CN(C)C)nc2)c1 (stereo not drawn) [Compound 6, (E)-N-(5-(3-(1-((5-cyclopropylthiazol-2-yl)amino)-1-oxopropan-2-yl)phenyl)pyridin-2-yl)-4-(dimethylamino)but-2-enamide]
Second: COc1cc(-c2cccc([C@H](C)C(=O)Nc3ncc(C(F)(F)F)s3)c2)cnc1NC(=O)/C=C/CN(C)C [Compound 100, (S,E)-4-(dimethylamino)-N-(3-methoxy-5-(3-(1-oxo-1-((5-(trifluoromethyl)thiazol-2-yl)amino)propan-2-yl)phenyl)pyridin-2-yl)but-2-enamide]
The IC50 of the first is 3.6-fold higher: 35 nM for the first, 9.8 nM for the second.

First: CCc1cnc(NC(=O)C2(c3cccc(-c4cnc(NC(=O)/C=C/CN(C)C)c(C#N)c4)c3)CC2)s1 [Compound 128, (E)-1-(3-(5-cyano-6-(4-(dimethylamino)but-2-enamido)pyridin-3-yl)phenyl)-N-(5-ethylthiazol-2-yl)cyclopropane-1-carboxamide]
Second: CCc1cnc(NC(=O)[C@@H](C)c2cccc(-c3cnc(NC(=O)/C=C/CN4CC5CC4CO5)c(C#N)c3)c2)s1 (stereo partly drawn) [Compound 123, (E)-4-(2-oxa-5-azabicyclo[2.2.1]heptan-5-yl)-N-(3-cyano-5-(3-((S)-1-((5-ethylthiazol-2-yl)amino)-1-oxopropan-2-yl)phenyl)pyridin-2-yl)but-2-enamide]
The IC50 of the first is 9.4-fold higher: 50 nM for the first, 5.3 nM for the second. The second is the more potent here.

Compound `COc1nc(-c2cccc([C@H](C)C(=O)Nc3ncc(C(F)(F)F)s3)c2)cnc1NC(=O)/C=C/CN(C)C` [Compound 109, (S,E)-4-(dimethylamino)-N-(3-methoxy-5-(3-(1-oxo-1-((5-(trifluoromethyl)thiazol-2-yl)amino)propan-2-yl)phenyl)pyrazin-2-yl)but-2-enamide] has an IC50 of 8.2 nM.
